# Results published in patent publication US20090176817A1, “Method of Treatment of Diarrhea-Predominant Irritable Bowel Syndrome in a Subject” (priority 2005, published 2009).
# Where two headings read alike, the source gives them in different places.
# What was measured:
# [1] = format: in vitro ADME; conditions: human
# Procedure: Protein binding was also evaluated in an in vitro study in human, mouse, rat, and dog plasma using equilibrium dialysis (12-14K molecular weight cut-off membrane). […] This study also measured the binding of (^14C)-cilansetron to purified human serum albumin at cilansetron concentrations ranging from 30-3000 ng/mL and to purified human alpha-1 acid glycoprotein (AAG) at concentrations ranging from 30-10000 ng/mL.
# [2] = test system: diarrhea-predominant IBS subjects; format: in vivo, human; conditions: for Percentage of Subjects Who Worsened from Baseline: Daily Abdominal Pain / Percentage of Subjects Who Worsened from Baseline: Daily Urgency: S241.3.006, observed value
# Source text: Studies S24 1.3.OO6, S24 1.3.0 1 1, and S24 1.3.009 used the following efficacy measurements: • The subjects answered the following three questions with “yes” or “no” using a phone diary at the end of each week: • a) During the last week, did you experience adequate relief of your IBS symptoms, such as abdominal pain, abdominal discomfort, abnormal bowel habits? • b) During the last week, did you experience adequate relief of your abdominal pain and/or discomfort? • c) During the last week, did you experience adequate relief of your abnormal bowel habits? • The subjects rated the following symptoms using the phone diary at the end of each day: • abdominal pain/discomfort (five-point scale); • stool consistency (seven-point Bristol Stool Scale); • stool frequency (number of bowel movements each day); • urgency (five-point scale); • straining (yes or no); • feeling of incomplete defecation (yes or no); • bloating or feeling of abdominal distension (five-point scale). • In Studies S241 A006 and S241.3.009, subjects completed the IBS-QOL Survey at Baseline (Day 1) and at the end of treatment. In Study S24 1.3.0 1 1, subjects completed the IBS-QOL Survey at Baseline (Day 1), at the end of the three-month treatment period, and at the end of rerandomized treatment.
# Other secondary efficacy parameters for all three studies included: • Responder rate for the weekly diary questions on adequate relief at each month, where a responder for a month (monthly responder) was defined as a subject who answered the weekly question with “yes” at least twice for that month. The responder rate was the percentage of responders within a treatment group. The all-month responder rate for the weekly diary questions on adequate relief was also evaluated, where an all-month responder was defined as a subject who answered the weekly question with “yes” at least twice for each month. The all-month responder rate was the percentage of all-month responders within a treatment group; • Adequate relief rate for the weekly diary questions was calculated for each subject as the number of weekly assessments with adequate relief (“yes”) divided by the total number of weekly assessments; • Percentage of subjects with adequate relief for the weekly diary questions at each week; • Daily diary questions regarding abdominal pain/discomfort (five-point scale), stool consistency (seven-point scale), stool frequency (number of bowel movements each day), straining (yes or no), urgency (five-point scale), feeling of incomplete evacuation (yes or no), and bloating or feeling of abdominal distention (five-point scale); • QOL data assessed by the IBS-QOL questionnaire; and • Question to determine the interruption of activities.
# The deterioration of effect analyses focus is to evaluate the percentage of subjects who worsened from Baseline. Clinical limits were set in order to capture a clinically meaningful number of subjects who worsened from Baseline. This clinical limit was also used in identifying those who improved from Baseline which led to a much larger percentage of subjects meeting this criterion. Percentages of subjects who improved from Baseline for these analyses are discussed in order to understand the context of the percentage of subjects who worsened.
# [3] = test system: diarrhea-predominant IBS subjects; assay: Study S241.3.009: safety; format: in vivo, human; parameters: Incidence of bilirubin increase: dose or concentration left out as unconfirmed; conditions: for Constipation: human, 26 weeks
# Source text: The primary efficacy parameter was the overall response rate for IBS symptoms, based on the weekly question concerning adequate relief of IBS symptoms (abdominal pain/discomfort, abnormal bowel habits) over the 26 weeks period. A responder was a subject who responded “yes” at least 50% of the time during his/her treatment period, with minimum treatment duration of four weeks. The two main secondary efficacy parameters were overall responder rate based on the weekly question on adequate relief of abdominal pain/discomfort and abnormal bowel habits during the 26-week treatment period. The onset of action of cilansetron was also examined using daily diary data (stool frequency, and ratings of urgency and severity) during the initial 8 weeks of trial participation. An additional key secondary efficacy parameter was the number of months (one month equals four weeks) up to six months (24-weeks) that a subject was a responder for IBS symptoms, where a responder was defined as a subject who answered the weekly question with “yes” at least twice for that month. The responder rate for the weekly diary questions on adequate relief at each month and all months, the adequate relief rate, the number of subjects with adequate relief by week, daily diary questions, IBS-QOL scores, and the interruption of activities were also assessed. Safety was evaluated by physical examination, ECG, vital signs, laboratory evaluations, concomitant medications, and AEs.
# healthy subjects = conditions: in vivo
# Procedure: In a randomized, double-blind, placebo-controlled, 2-way crossover study in 9 male and 9 female healthy subjects (ITT population, aged 21-39 years), subjects were randomized to receive 2 treatments (cilansetron 16 mg tablet and placebo) during the 2 treatment periods. During each treatment period, subjects received a single dose of their assigned treatment on the first day (Day 1), after which they received the same treatment TID for 4 days (Days 2-5). There was a 10-day washout period between treatment periods. Subjects were fasted for at least 2 hours before and following each dose, and heavy physical activity was restricted. Serial 12-lead ECGs was recorded up to 24 hours following dosing on Day 1 (single dose) and on the last day (Day 5) of each treatment period. Heart rate and ECG intervals (RR, PR, QRS, and QT) were measured electronically, but were manually verified and corrected if needed by the investigator. QT intervals were corrected (QTc) electronically for heart rate using the Bazett's correction. Mean and maximum QTc intervals were calculated over different time intervals postdose and were compared between treatments using an ANOVA accounting for sequence, gender, subject within sequence and gender, period, and treatment effects.
smiles,measurement,setting,value
"Cc1nccn1C[C@H]1CCc2c(c3cccc4c3n2CCC4)C1=O [Cilansetron, (R)-(−)-4,5,6,8,9,10-hexahydro-10-[(2-methyl-1H-imidazol-1-yl)methyl]-11H-pyrido-[3,2,1-jk]-carbazol-11-one]",Protein bound,[1],93-96%
same,Mean number of stools per day at end of treatment,[2]; 2 mg TID,2.45 stools per day
same,Percentage of Subjects Who Worsened from Baseline: Daily Abdominal Pain,"[2]; Weeks 1-2, 2 mg TID",13%
same,Percentage of Subjects Who Worsened from Baseline: Daily Urgency,"[2]; Weeks 1-2, 2 mg TID",5%
same,Percentage of Subjects Who Worsened from Baseline: Daily Abdominal Pain,"[2]; Weeks 3-4, 2 mg TID",8%
same,Percentage of Subjects Who Worsened from Baseline: Daily Urgency,"[2]; Weeks 3-4, 2 mg TID",5%
same,Percentage of Subjects Who Worsened from Baseline: Daily Abdominal Pain,"[2]; Weeks 5-6, 2 mg TID",9%
same,Percentage of Subjects Who Worsened from Baseline: Daily Urgency,"[2]; Weeks 5-6, 2 mg TID",8%
same,Percentage of Subjects Who Worsened from Baseline: Daily Abdominal Pain,"[2]; Weeks 7-8, 2 mg TID",7%
same,Percentage of Subjects Who Worsened from Baseline: Daily Urgency,"[2]; Weeks 7-8, 2 mg TID",5%
same,Percentage of Subjects Who Worsened from Baseline: Daily Abdominal Pain,"[2]; Weeks 9-10, 2 mg TID",8%
same,Percentage of Subjects Who Worsened from Baseline: Daily Urgency,"[2]; Weeks 9-10, 2 mg TID",8%
same,Percentage of Subjects Who Worsened from Baseline: Daily Abdominal Pain,"[2]; Weeks 11-12, 2 mg TID",8%
same,Percentage of Subjects Who Worsened from Baseline: Daily Urgency,"[2]; Weeks 11-12, 2 mg TID",8%
same,"Subjects worsened from Baseline, daily abdominal pain",[2]; Weeks 1-2,13%
same,"Subjects worsened from Baseline, daily urgency",[2]; Weeks 1-2,5%
same,Median rate of urgency-free days,[2]; end of treatment,0.27
same,"Bloating or abdominal distention score, change from Baseline at end of treatment",[2]; in vivo,−0.48
same,"Daily abdominal pain/discomfort score, change from Baseline at end of treatment",[2]; in vivo,−0.69
same,"Daily stool consistency score, change from Baseline at end of treatment",[2]; in vivo,−1.22
same,"Daily urgency score, change from Baseline at end of treatment",[2]; in vivo,−0.87
same,"Feeling of incomplete evacuation, change from Baseline at end of treatment",[2]; in vivo,−0.18
same,Mean stool consistency score at end of treatment,[2]; in vivo,4.10
same,"Mean straining, change from Baseline at end of treatment",[2]; in vivo,0.09
same,"Stools per day, change from Baseline at end of treatment",[2]; in vivo,−0.98
same,Median rate of pain-free days,[2]; three-month period,0.19
same,Median rate of urgency-free days,[2]; three-month period,0.32
same,Number of subjects who died,"[3]; 2 mg TID, 401 randomized, S241.3.009",0 n (%)
same,Constipation,"[3]; female, in vivo",17%
same,Abdominal pain aggravated,[3]; in vivo,five
same,Incidence of bilirubin increase,[3]; in vivo,8%
same,Rectal hemorrhage,[3]; in vivo,three
same,Suspected ischemic colitis,[3]; in vivo,three
same,Constipation,"[3]; male, in vivo",7%
same,Effect on mean or maximum QTc interval (Bazett's correction),healthy subjects,no effect
